Here are results for 17 molecules from patent US20260085067A1, “CYCLIC SULFONAMIDE RIBONUCLEOTIDE REDUCTASE (RNR) INHIBITORS AND USES THEREOF” (Boundless Bio, Inc., priority 2022, published 2026).

Some results are limits rather than exact numbers.

In experiment [1] the test system is pCHK1 (S345) in Colo320 DM cells. Kind of experiment: Alphalisa assay, detection of pCHK1 (S345) in Colo320 DM cells. The format is cell-based, human. The conditions noted are these: Homo sapiens, COLO 320DM, compound overnight (approximately 16 hours). Summed up: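 Colo320 DM cells plated overnight, then exposed to compound for about 16 h at 37 °C (DMSO <0.5%). Cells lysed and phospho-CHK1 (S345) quantified by AlphaLisa SureFire with sequential 60 min acceptor and donor incubations at room temperature.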
In general terms: Alpha assays give light when donor and acceptor beads are brought close together.

A further experiment concerns the target T1, RNR (RNR1:RNR2 1:1) (Homo sapiens, UniProt P23921).
T1 sequence (P23921 1-792): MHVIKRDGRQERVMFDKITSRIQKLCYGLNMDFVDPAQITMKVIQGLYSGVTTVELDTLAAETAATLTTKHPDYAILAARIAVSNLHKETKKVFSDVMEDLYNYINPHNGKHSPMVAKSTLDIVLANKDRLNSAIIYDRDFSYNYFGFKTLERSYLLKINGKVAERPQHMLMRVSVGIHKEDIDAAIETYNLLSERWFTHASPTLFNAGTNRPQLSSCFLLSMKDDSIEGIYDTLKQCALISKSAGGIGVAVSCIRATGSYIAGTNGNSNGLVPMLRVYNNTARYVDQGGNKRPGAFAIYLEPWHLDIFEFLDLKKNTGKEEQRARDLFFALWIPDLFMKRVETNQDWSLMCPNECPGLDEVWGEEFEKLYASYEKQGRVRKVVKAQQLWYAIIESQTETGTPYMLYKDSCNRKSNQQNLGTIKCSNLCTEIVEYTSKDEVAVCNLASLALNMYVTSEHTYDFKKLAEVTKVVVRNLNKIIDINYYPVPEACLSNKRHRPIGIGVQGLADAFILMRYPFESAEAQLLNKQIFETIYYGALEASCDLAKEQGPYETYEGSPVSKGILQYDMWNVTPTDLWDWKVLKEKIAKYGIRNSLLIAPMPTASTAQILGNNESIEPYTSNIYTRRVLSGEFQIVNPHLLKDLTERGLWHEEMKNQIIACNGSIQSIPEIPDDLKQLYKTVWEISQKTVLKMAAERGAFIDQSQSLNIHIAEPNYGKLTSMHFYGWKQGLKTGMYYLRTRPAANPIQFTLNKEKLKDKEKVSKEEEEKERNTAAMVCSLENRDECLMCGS
Nature of the experiment: RNR enzyme activity, rapid-fire mass spectrometry (RF/MS) assay. The format is biochemical. To be noted: [RNR] 50 nM, 1:1 RNR1:RNR2; CDP 5 μM; ATP 1 mM; 37° C., 45 min; compounds screened up to 50 μM. Summed up: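 Human RNR (50 nM final, RNR1:RNR2 1:1) pre-incubated 15 min at room temperature, then reacted 45 min at 37 °C with 5 μM CDP and 1 mM ATP, no NADPH. Reaction quenched with 6% HCOOH; product quantified by rapid-fire mass spectrometry.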

As to `Cc1ccc(F)c([C@@H](C)[C@@H](c2n[nH]c(=O)o2)N2CN(CCO)c3nc(Cl)ccc3S2(=O)=O)c1C` [Example 73, 5-((1S,2R)-1-(6-chloro-4-(2-hydroxyethyl)-1,1-dioxido-3,4-dihydro-2H-pyrido[2,3-e][1,2,4]thiadiazin-2-yl)-2-(6-fluoro-2,3-dimethylphenyl)propyl)-1,3,4-oxadiazol-2 (3H)-one], the IC50 – broadly, the concentration needed to halve the response being measured – in experiment [1] was ≤ 1000 nM; on RNR (RNR1:RNR2 1:1), < 20 nM.
In the same order, the values of `Cc1ccc(F)c([C@@H](C)[C@@H](c2n[nH]c(=O)o2)N2CN([C@@H]3CCN(C)C3)c3cc(Cl)ccc3S2(=O)=O)c1C` [Example 74, 5-((1S,2R)-1-(6-chloro-4-((R)-1-methylpyrrolidin-3-yl)-1,1-dioxido-3,4-dihydro-2H-benzo[e][1,2,4]thiadiazin-2-yl)-2-(6-fluoro-2,3-dimethylphenyl)propyl)-1,3,4-oxadiazol-2 (3H)-one] are ≤ 1000 nM and < 20 nM.
For the molecule `Cc1ccc(F)c([C@@H](C)[C@@H](c2n[nH]c(=O)o2)N2CN(C)c3cc(Cl)cc(CBr)c3S2(=O)=O)c1C` [Example 76, 5-((1S,2R)-1 (8-(bromomethyl)-6-chloro-4-methyl-1,1-dioxido-3,4-dihydro-2H-benzo[e][1,2,4]thiadiazin-2-yl)-2-(6-fluoro-2,3-dimethylphenyl)propyl)-1,3,4-oxadiazol-2 (3H)-one], the IC50 in experiment [1] is 1000 to 5000 nM; against RNR (RNR1:RNR2 1:1), < 20 nM.
In the same order, the values of `Cc1ccc(F)c([C@@H](C)[C@@H](c2n[nH]c(=O)o2)N2CCOc3cc(Cl)c(CO)cc3S2(=O)=O)c1C` [Example 77, 5-((1S,2R)-1-(7-chloro-8-(hydroxymethyl)-1,1-dioxido-3,4-dihydro-2H-benzo[b][1,4,5]oxathiazepin-2-yl)-2-(6-fluoro-2,3-dimethylphenyl)propyl)-1,3,4-oxadiazol-2 (3H)-one] are > 50000 nM and 100 to 1000 nM.
In the same order, the values of `Cc1ccc(F)c([C@@H](C)[C@@H](c2n[nH]c(=O)o2)N2CCOc3cc(Cl)cc(CO)c3S2(=O)=O)c1C` [Example 78, 5-((1S,2R)-1-(7-chloro-9-(hydroxymethyl)-1,1-dioxido-3,4-dihydro-2H-benzo[b][1,4,5]oxathiazepin-2-yl)-2-(6-fluoro-2,3-dimethylphenyl)propyl)-1,3,4-oxadiazol-2 (3H)-one] are ≤ 1000 nM and < 20 nM.
On the same counts, the results for `Cc1ccc(F)c([C@@H](C)[C@@H](c2n[nH]c(=O)o2)N2CN(CCCO)c3cc(Cl)ccc3S2(=O)=O)c1C` [Example 79, 5-((1S,2R)-1-(6-chloro-4-(3-hydroxypropyl)-1,1-dioxido-3,4-dihydro-2H-benzo[e][1,2,4]thiadiazin-2-yl)-2-(6-fluoro-2,3-dimethylphenyl)propyl)-1,3,4-oxadiazol-2 (3H)-one] are ≤ 1000 nM and < 20 nM.
As to `Cc1ccc(F)c([C@@H](C)[C@@H](c2n[nH]c(=O)o2)N2CN(CCN3CCCC3)c3cc(Cl)ccc3S2(=O)=O)c1C` [Example 80, 5-((1S,2R)-1-(6-chloro-1,1-dioxido-4-(2-(pyrrolidin-1-yl)ethyl)-3,4-dihydro-2H-benzo[e][1,2,4]thiadiazin-2-yl)-2-(6-fluoro-2,3-dimethylphenyl)propyl)-1,3,4-oxadiazol-2 (3H)-one], the values for the IC50 (in experiment [1]; on RNR (RNR1:RNR2 1:1)) were ≤ 1000 nM and < 20 nM, respectively.
`Cc1ccc(F)c([C@@H](C)[C@@H](c2n[nH]c(=O)o2)N2CN(CC(F)F)c3nc(Cl)ccc3S2(=O)=O)c1C` [Example 81, 5-[(1S,2R)-1-[6-chloro-4-(2,2-difluoroethyl)-1,1-dioxo-3H-pyrido[2,3-e][1,2,4]thiadiazin-2-yl]-2-(6-fluoro-2,3-dimethyl-phenyl)propyl]-3H-1,3,4-oxadiazol-2-one]: the IC50 is ≤ 1000 nM in experiment [1] and < 20 nM on RNR (RNR1:RNR2 1:1).
On the same counts, the results for `Cc1ccc(F)c([C@@H](C)[C@@H](c2n[nH]c(=O)o2)N2CN(CCCO)c3nc(Cl)ccc3S2(=O)=O)c1C` [Example 82, 5-[(1S,2R)-1-[6-chloro-4-(3-hydroxypropyl)-1,1-dioxo-3H-pyrido[2,3-e][1,2,4]thiadiazin-2-yl]-2-(6-fluoro-2,3-dimethyl-phenyl)propyl]-3H-1,3,4-oxadiazol-2-one] are ≤ 1000 nM and < 20 nM.
On the same counts, the results for `Cc1ccc(F)c([C@@H](C)[C@@H](c2n[nH]c(=O)o2)N2CN(CC3COC3)c3cc(Cl)ccc3S2(=O)=O)c1C` [Example 83, 5-((1S,2R)-1-(6-chloro-4-(oxetan-3-ylmethyl)-1,1-dioxido-3,4-dihydro-2H-benzo[e][1,2,4]thiadiazin-2-yl)-2-(6-fluoro-2,3-dimethylphenyl)propyl)-1,3,4-oxadiazol-2 (3H)-one] are ≤ 1000 nM and < 20 nM.
On the same counts, the results for `Cc1ccc(F)c([C@@H](C)[C@@H](c2n[nH]c(=O)o2)N2CN(CCN3CCOCC3)c3cc(Cl)ccc3S2(=O)=O)c1C` [Example 84, 5-((1S,2R)-1-(6-chloro-4-(2-morpholinoethyl)-1,1-dioxido-3,4-dihydro-2H-benzo[e][1,2,4]thiadiazin-2-yl)-2-(6-fluoro-2,3-dimethylphenyl)propyl)-1,3,4-oxadiazol-2 (3H)-one] are ≤ 1000 nM and < 20 nM.
As for `Cc1ccc(F)c([C@@H](C)[C@@H](c2n[nH]c(=O)o2)N2CN([C@H]3CCN(C)C3)c3cc(Cl)ccc3S2(=O)=O)c1C` [Example 86, 5-((1S,2R)-1-(6-chloro-4-((S)-1-methylpyrrolidin-3-yl)-1,1-dioxido-3,4-dihydro-2H-benzo[e][1,2,4]thiadiazin-2-yl)-2-(6-fluoro-2,3-dimethylphenyl)propyl)-1,3,4-oxadiazol-2 (3H)-one], the values for the IC50 (in experiment [1]; against RNR (RNR1:RNR2 1:1)) were 1000 to 5000 nM and < 20 nM, respectively.
In the same order, the values of `Cc1ccc(F)c([C@@H](C)[C@@H](c2n[nH]c(=O)o2)N2CN(C3CCOCC3)c3nc(Cl)ccc3S2(=O)=O)c1C` [Example 87, 5-((1S,2R)-1-(6-chloro-1,1-dioxido-4-(tetrahydro-2H-pyran-4-yl)-3,4-dihydro-2H-pyrido[2,3-e][1,2,4]thiadiazin-2-yl)-2-(6-fluoro-2,3-dimethylphenyl)propyl)-1,3,4-oxadiazol-2 (3H)-one] are ≤ 1000 nM and < 20 nM.
Consider `Cc1ccc(F)c([C@@H](C)[C@@H](c2n[nH]c(=O)o2)N2CN(CC(F)F)c3cc(Cl)ccc3S2(=O)=O)c1C` [Example 88, 5-((1S,2R)-1-(6-chloro-4-(2,2-difluoroethyl)-1,1-dioxido-3,4-dihydro-2H-benzo[e][1,2,4]thiadiazin-2-yl)-2-(6-fluoro-2,3-dimethylphenyl)propyl)-1,3,4-oxadiazol-2 (3H)-one], for which the IC50 is ≤ 1000 nM in experiment [1] and < 20 nM against RNR (RNR1:RNR2 1:1).
Consider `CC(=O)c1cc(Cl)cc2c1S(=O)(=O)N([C@H](c1n[nH]c(=O)o1)[C@H](C)c1c(F)ccc(C)c1C)CN2C1CC1` [Example 95, 5-((1S,2R)-1-(8-acetyl-6-chloro-4-cyclopropyl-1,1-dioxido-3,4-dihydro-2H-benzo[e][1,2,4]thiadiazin-2-yl)-2-(6-fluoro-2,3-dimethylphenyl)propyl)-1,3,4-oxadiazol-2 (3H)-one], for which the IC50 in experiment [1] was ≤ 1000 nM; against RNR (RNR1:RNR2 1:1) it was < 20 nM.
On the same counts, the results for `Cc1ccc(F)c([C@@H](C)[C@@H](c2n[nH]c(=O)o2)N2CN(C3CN(CC(F)(F)F)C3)c3cc(Cl)ccc3S2(=O)=O)c1C` [Example 96, 5-((1S,2R)-1-(6-chloro-1,1-dioxido-4-(1-(2,2,2-trifluoroethyl)azetidin-3-yl)-3,4-dihydro-2H-benzo[e][1,2,4]thiadiazin-2-yl)-2-(6-fluoro-2,3-dimethylphenyl)propyl)-1,3,4-oxadiazol-2 (3H)-one] are ≤ 1000 nM and < 20 nM.
As to `Cc1ccc(F)c([C@@H](C)[C@@H](c2n[nH]c(=O)o2)N2CN([C@@H]3CCOC[C@H]3F)c3cc(Cl)ccc3S2(=O)=O)c1C` [Example 97, 5-((1S,2R)-1-(6-chloro-4-((3S,4R)-3-fluorotetrahydro-2H-pyran-4-yl)-1,1-dioxido-3,4-dihydro-2H-benzo[e][1,2,4]thiadiazin-2-yl)-2-(6-fluoro-2,3-dimethylphenyl)propyl)-1,3,4-oxadiazol-2 (3H)-one], the values for the IC50 (in experiment [1]; against RNR (RNR1:RNR2 1:1)) were ≤ 1000 nM and < 20 nM, respectively.
